Positions of bridges follow the written chain, without caps; N, C: chain ends. Residues, ends and D or L forms follow the SMILES beside them.
Tests used:
cells = experiment: cells
Procedure: (§1) Cell death was measured using resazurin, with 0.1% (v/v) Triton X‐100 as a control for 100% cell death. Data points are expressed as mean ± SD for at least two biological replicates. Dose response curves were fitted using [inhibitor] versus response with variable slope, Graphpad Prism v10. […] RBC lysis was determined by measuring released hemoglobin, with 0.1% (v/v) Triton X‐100 as a control for 100% cell lysis. Melittin was included as a membranolytic control. Data points are expressed as mean ± SD for two technical replicates. Dose response curves were fitted using [inhibitor] versus response with variable slope, Graphpad Prism v10. […] CC50 values are expressed as mean (SEM).
Cell death was measured using resazurin, with 0.1% (v/v) Triton X-100 as a control for 100% cell death. Data points are expressed as mean ± SD for at least two biological replicates. CC50 values are expressed as mean (SEM). Note: CPT-dipeptide-PDIP was not included in this study. c[A]PDIP is a desulfurized variant of cPDIP 2 (see Table S1) to prevent the presence of free thiol during assays. […]
HaCaT cells were grown in DMEM medium and HT144 cells were grown in RPMI medium supplemented with 2 mM L-glutamine and 10 mM sodium pyruvate. Media were supplemented with 10% (v/v) fetal bovine serum, 100 units/mL of penicillin and […] of streptomycin. Flasks of cultured cells were maintained in a humidified incubator (37 °C, 5% CO2) and passaged every 2–3 days to maintain cultures between 20–90% confluence. Cell line identity was verified by comparing […]
STR profiles of the cell lines against database entries from the DSMZ-German collection of microorganisms and cell cultures, GmBH https://celldive.dsmz.de/str/browse.
Toxicity to the HT144 and HaCaT cell lines was tested following peptide treatment by measuring the metabolism of resazurin into fluorescent resorufin. The assays were performed with 5000 cells/well (96-well plate) in serum free media. Cells were incubated with serially diluted peptides, PDCs or […]

HT144 cells = experiment: Compound internalization/association with HT144 cells (TOF-MS of cell extracts); type: cell-based; conditions: 4 μM, 1 h
Procedure: FIGURE 4 (A) Membrane permeability and cellular uptake of PDCs, scaffold peptides, and CPT. Compounds were added to PAMPA wells (4 μM) and incubated for 4 h. Supernatant from apical and basolateral sides of the membrane were collected and analyzed using LC–MS. The amount in the combined soluble fractions was compared to the starting amount to determine % recovery, and the apparent permeability (Papp) was calculated as before (Sevin et al. [2013]). Data is expressed as mean ± SD from a single experiment with three technical replicates. (B) Internalization/cell membrane association of PDCs 12–14 and PDIP with HT144 cells. […] The relative amount of internalized peptide or PDC was determined by integrating area under the curve (AUC) for the [M + 6H]^6+ m/z peak (for the intact mass) using time of flight–mass spectrometry (see Figure S2). […] Data is expressed as mean ± SD from a single experiment with three technical replicates for each treatment and control and was analyzed with ANOVA (Tukey multiple comparisons; **p < 0.01, *p < 0.05). […] Data is expressed as mean ± SD from a single experiment with three technical replicates for each treatment and was analyzed with ANOVA (Fisher multiple paired comparisons; **p < 0.01, *p < 0.05). […]
The area under the curve (AUC) for the [M+6H]6+ m/z peak for each compound was determined using Sciex […]

human RBCs = experiment: Red blood cell (RBC) lysis, released hemoglobin; conditions: red cells of human, 72 h
Procedure: as §1, with “(SEM). […]” for “(SEM).”
Red blood cell (RBC) lysis
Human RBCs and serum were obtained from healthy volunteers via the Red Cross Lifeblood,
Brisbane, Australia. RBCs were washed three times with PBS and stored in culture medium (RPMI

## CC[C@H](C)[C@@H]1NC(=O)[C@H](CCCCN)NC(=O)[C@H](CCCCN)NC(=O)[C@H](Cc2ccc(O)cc2)NC(=O)[C@H](CC(C)C)NC(=O)[C@@H]2CCCN2C(=O)CNC(=O)CNC(=O)[C@@H](NC(=O)CN)CSSC[C@@H](C(=O)N[C@@H](CCC(=O)O)C(=O)N[C@@H](CO)C(N)=O)NC(=O)[C@H](CC(C)C)NC(=O)[C@H](CCCCN)NC(=O)[C@H](CCCCN)NC(=O)[C@H]([C@@H](C)CC)NC(=O)[C@H]([C@@H](C)CC)NC(=O)[C@H](CCCCN)NC(=O)[C@H](CCCCN)NC(=O)[C@H](Cc2ccc(O)cc2)NC(=O)[C@H](CC(C)C)NC(=O)[C@@H]2CCCN2C(=O)[C@H](C)NC(=O)CNC(=O)CNC(=O)[C@H](CO)NC(=O)CNC(=O)CNC(=O)[C@H](CO)NC(=O)[C@H](CCC(=O)O)NC(=O)[C@H](CC(C)C)NC(=O)[C@H](CC(C)C)NC(=O)[C@H](CCCCN)NC(=O)[C@H](CCCCN)NC(=O)[C@H]([C@@H](C)CC)NC1=O [PDIP, reference compound] (H-GCGGPLYKKIIKKLLESGGSGGAPLYKKIIKKLCES-NH2; disulfide 2-34; N-terminus assumed)
cells
  CC50: 4.83 µM
HT144 cells
  recovered intact conjugate/peptide (percentage of internalized compound): 9%
Human RBCs
  HC10 (minimal hemolytic concentration) RBC: ~ 32 μM

From article PMC11747586, “Synthesis and Investigation of Peptide–Drug Conjugates Comprising Camptothecin and a Human Protein‐Derived Cell‐Penetrating Peptide” (Chemical Biology & Drug Design, 2025)
